{"source": "paper PMC9866218", "about": "“Characterization and Chemical Synthesis of Cm39 (α-KTx 4.8): A Scorpion Toxin That Inhibits Voltage-Gated K^+ Channel KV1.2 and Small- and Intermediate-Conductance Ca^2+-Activated K^+ Channels KCa2.2 and KCa3.1” (Toxins, 2023)", "key": {"hKV1.4": {"test_system": "hKV1.4", "assay": "Whole-cell patch-clamp, block of KV1.4 current", "assay_type": "cell-based, human", "settings": "CHO cells", "from_the_text": "(§1) We, therefore, aimed at testing the pharmacological activity of sCm39 on a battery of various potassium and sodium ion channels. Among the tested channels were six members of human voltage-gated K^+ (hKV) channels from Shaker family, hKV1.1-hKV1.6 (Figure 3A–F) and three members of Ca^2+-activated potassium channel; hKCa2.2 (SK2, Figure 3I), the small-conductance Ca^2+-activated channel; hKCa3.1 (IKCa1, SK4. Figure 3J), the intermediate-conductance Ca^2+-activated channel expressed in T lymphocytes; and mKCa1.1 (BK, Slo1, MaxiK, Figure 3H), the large-conductance voltage- and Ca^2+-activated channel of mice. In addition, we also screened the effect of Cm39 on hKV11.1 (hERG1, Figure 3G), a voltage-gated cardiac K^+ channel, and two human voltage-gated sodium (hNaV) channels, hNaV1.4 (Figure 3K) and hNaV1.5 (Figure 3L), expressed in skeletal and cardiac muscles, respectively. These ion channels were heterologously expressed in the CHO or HEK cell lines except for KV1.3. Human peripheral T lymphocytes. They were stimulated with Phytohemagglutinin A (PHA) to increase the KV1.3 channel expression, and Ca^2+-free intracellular solution was used to avoid KCa3.1 channel activation. […]\nThose plasmids which lack a fluorescent tag were co-transfected with a plasmid encoding GFP. […] Generally, currents were recorded 24 to 48 h post transfection. […]"}, "hKV11.1": {"test_system": "hKV11.1", "assay": "Whole-cell patch-clamp, block of KV11.1 (hERG1) current", "assay_type": "cell-based, human", "settings": "HEK 293 cells", "from_the_text": "as §1, with “lymphocytes.” for “lymphocytes. They were stimulated with Phytohemagglutinin A (PHA) to increase the KV1.3 channel expression, and Ca^2+-free intracellular solution was used to avoid KCa3.1 channel activation.”\n(§2) Whole-cell currents were recorded in voltage-clamped cells following standard protocols by using a Multiclamp 700B amplifier connected to a computer with Axon Digidata1440 digitizer and for data acquisition, Clampex 10.7 software was used (Molecular Devices). […]"}, "mKCa1.1": {"test_system": "mKCa1.1", "assay_type": "cell-based, mice", "settings": "HEK 293 cells", "from_the_text": "as §1, with “activation. Appropriate depolarization protocols were used to record ionic currents in voltage-clamped cells (see Figure 3 insets and Material and Methods for details). Freshly dissolved sCm39 in extracellular solution was applied at 1 µM concentration on the cell using a custom-built micro-perfusion system at ~200 µL/min flow rate.” for “activation.”\nas §2"}}, "note": "“Also recorded” adds a separate entry of the source."}
{"smiles": "CC[C@H](C)[C@@H]1NC(=O)[C@H](C)NC(=O)[C@H](C)NC(=O)[C@H](CCCCN)NC(=O)[C@@H]2CSSC[C@@H](C(=O)N[C@@H](Cc3ccc(O)cc3)C(=O)N[C@@H](Cc3ccc(O)cc3)C(=O)O)NC(=O)[C@H](CCCCN)NC(=O)[C@@H]3CSSC[C@H](NC(=O)[C@H](CCC(=O)O)NC(=O)[C@H](CO)NC(=O)[C@H](CO)NC(=O)[C@H](CO)NC(=O)[C@H](CCCCN)NC(=O)[C@@H](NC(=O)[C@H](CCCCN)NC(=O)[C@H](Cc4c[nH]cn4)NC(=O)[C@H](CC(N)=O)NC(=O)[C@@H](NC(=O)[C@H](Cc4ccccc4)NC(=O)[C@@H](N)[C@@H](C)O)[C@@H](C)CC)CSSC[C@H](NC(=O)[C@H](CCCCN)NC(=O)CNC(=O)[C@H](CO)NC(=O)[C@H](C)NC(=O)[C@H](CCCNC(=N)N)NC(=O)CNC1=O)C(=O)N[C@@H]([C@@H](C)CC)C(=O)N[C@@H](CC(N)=O)C(=O)N[C@@H](CO)C(=O)N[C@@H]([C@@H](C)O)C(=O)N3)C(=O)N[C@@H](CC(C)C)C(=O)N1CCC[C@H]1C(=O)N[C@@H](C)C(=O)N2", "note": "[Cm39]", "values": [{"measurement": "inhibition (in words)", "setting": "hKV1.4; 1 μM", "value": "does not inhibit; also recorded: did not show any effect"}, {"measurement": "decrease in current", "setting": "hKV1.4; 1 µM, 3−5 min, n = 3−5", "value": "< 3", "unit": "%"}, {"measurement": "inhibition (in words)", "setting": "hKV11.1; 1 μM", "value": "does not inhibit; also recorded: did not show any effect"}, {"measurement": "decrease in current", "setting": "hKV11.1; 1 µM, 3−5 min, n = 3−5", "value": "< 3", "unit": "%"}, {"measurement": "inhibition (in words)", "setting": "mKCa1.1; 1 μM", "value": "does not inhibit; also recorded: did not show any effect"}, {"measurement": "decrease in current", "setting": "mKCa1.1; 1 µM, 3−5 min, n = 3−5", "value": "< 3", "unit": "%"}]}
